Measured values reported in US20140066449A1, “DIPYRIDINIUM DERIVATIVES” (SABREPHARM LIMITED, priority 2011, published 2014).
Values joined by “and” are separate entries in the source; they are usually repeats but may differ in a detail not shown here. Equal entries are not always repeated. Where two headings read alike, the source gives them in different places.

Columns and labels:
[1] = system: MCF7 [Breast]; test: Combination with cisplatin, MCF-7; type: cell-based, human
[2] = system: H460 non-small cell lung adenocarcinoma; test: MTT in vitro cytotoxicity, H460; type: cell-based
Description: (§1) All were stored in the dark at 4° C. An accurately weighed amount of each compound was dissolved in DMSO and Hank's Balanced Salt Solution (Sigma) according to Table 2 below:
(§2) Further dilutions were made in complete RPMI1640 cell culture medium (RPMI1640 cell culture medium supplemented with 10% foetal bovine serum, 1 mM L-glutamine, and 2 mM sodium pyruvate (all from Sigma)).
(§3) H460 non-small cell lung adenocarcinoma, HT-29 colon adenocarcinoma and MCF-7 breast adenocarcinoma (ECACC, Salisbury, Wiltshire) were used for analysis. Cells were cultured in complete RPMI1640 cell culture medium, and maintained as monolayer cultures at 37° C. in a humidified 5% CO2 environment.
(§4) Tumour cell growth inhibition was assessed using the MTT assay with a standard 96 hour plus an extended 10 day incubation. For the 96 hour assay 1×10^4 cells were inoculated into each well of a 96-well plate and incubated overnight at 37° C. in a humidified atmosphere containing 5% CO2 to give time to adhere to the wells and form a monolayer. For the 10 day incubation, 1×102 (H460 and HT-29) and 1×103 (MCF-7) cells were inoculated. The next day, culture medium was removed from each well and replaced with cell culture media for the untreated control, or media containing compound, and the plates then incubated for a further 96 hours or 10 days. […] After 96 hours or 10 days culture medium was removed and 200 μL of 0.5 mgmL-1 MTT solution (Sigma) in complete medium added to each well. Following a further 4 hours incubation, the solution was removed from each well and 150 μL of DMSO added to solubilise the formazan crystals resulting from MTT conversion. Absorbance values for the resulting solutions were read at 550 nm on a Multiskan Ex microplate reader (Thermo Fisher, Loughborough, UK) and cell survival calculated as the absorbance of treated cells divided by the control. Results are expressed in terms of IC50 values (i.e. concentration of compound required to kill 50% of cells), which were determined manually in Microsoft Excel from plots of concentration versus percentage cell survival, and all experiments were performed in triplicate.

[3] = system: A2780/cis [cisplatin ovarian resistant line]; test: Combination with cisplatin, A2780/cis; type: cell-based
[4] = system: MCF-7 breast adenocarcinoma; test: MTT in vitro cytotoxicity, MCF-7; type: cell-based, human
Description: as §1, §2, §3, §4

[5] = system: A2780 [ovarian]; test: Combination with cisplatin, A2780; type: cell-based
[6] = system: MCF-7 Human Breastadenocarclnoma Xenograft; test: MCF-7 xenograft model study; type: in vivo, mice
Source text: Evaluation of the Efficacy of the Compounds C & D (Examples 2 & 3 Respectively) in the MCF-7 Human Breastadenocarclnoma Xenograft Model

[7] = system: HT-29 colon adenocarcinoma; test: MTT in vitro cytotoxicity, HT-29; type: cell-based
Description: as §1, §2, §3, §4

[8] = system: M 14 [melanoma]; test: Combination with cisplatin, M14; type: cell-based
[9] = system: human mitochondria isolated from HEK293 cells; test: ROS production in isolated mitochondria (DCFDA); type: biochemical
Description: The ability of test compounds to impact ROS production in isolated mitochondria after 120 mins exposure was assessed.
Mitochondria were isolated from harvested human embryonic kidney (HEK293) cells (20×10^6) using a commercial kit (Thermo Scientific) before re-suspension in PBS to a final volume of 800 μL. […] Independent experiments (each assessing the impact of all four compounds along with a positive [AAPH; 5.0 mM] and vehicle control) were repeated three times.

[10] = Redox potential study, square wave voltammetry; type: physicochemical; conditions: 0.1 mol dm-3 LiNTf2, 20° C., first scan
Description: BioAnalytical Systems CV50W potentiostat (from BAS Inc., USA)
Square wave voltammetry (4 mV step, 25 mV pulse, 10 Hz SW frequency)
3 mm diameter glassy carbon working electrode (from BAS)
3 mm diameter glassy carbon counter electrode (from BAS)
Saturated calomel reference electrode (SCE, from Sycopel Scientific Ltd., UK)
0.1 mol dm-3 lithium bis(trifluoromethanesulphonyl)imide ((LiNTf2)CAS 90076-65-6, from 3M)
Voltammograms were recorded from 0.5 V to −1.2 V in deoxygenated solutions of the Compounds.

[11] = cisplatin 1 μM alone (compound 0 μM)
[12] = H460, 10 day exposure, highest concentration 30 μM, read-out: IC50 Run 1
[13] = H460, 10 day exposure, highest concentration 100 μM, read-out: IC50 Run 2
[14] = H460, 10 day exposure, highest concentration 100 μM, read-out: IC50 Run 3
[15] = cisplatin 10 μM alone (compound 0 μM)
[16] = MCF-7, 10 day exposure, highest concentration 30 μM, read-out: IC50 Run 1
[17] = MCF-7, 10 day exposure, highest concentration 100 μM, read-out: IC50 Run 2
[18] = MCF-7, 10 day exposure, highest concentration 100 μM, read-out: IC50 Run 3
[19] = cisplatin 3 μM alone (compound 0 μM)
[20] = HT-29, 10 day exposure, highest concentration 30 μM, read-out: IC50 Run 1
[21] = HT-29, 10 day exposure, highest concentration 100 μM, read-out: IC50 Run 2
[22] = HT-29, 10 day exposure, highest concentration 100 μM, read-out: IC50 Run 3
[23] = 200 mg/kg, i.v., d 0, 2, 4, 7, 9 & 11
[24] = compound 10 μM + cisplatin 1 μM
[25] = compound 1 μM + cisplatin 10 μM
[26] = compound 3 μM + cisplatin 10 μM
[27] = compound 10 μM + cisplatin 10 μM
[28] = compound 10 μM + cisplatin 3 μM

N.N.[Cl][Pt][Cl] [Cisplatin]
% cell survival ([1]; cisplatin 0.1 μM alone (compound 0 μM)): 107.4% and 110.8%
% cell survival ([1]; cisplatin 0.3 μM alone (compound 0 μM)): 76% and 91.3%
% cell survival [1, 11]: 72.4% and 70.3%
IC50 [2, 12]: 1.1 µM
IC50 [2, 13]: 1 µM
IC50 [2, 14]: 0.9 µM
IC50 ([2]; H460, 10 day exposure, mean of runs, read-out: IC50 Mean): 1 µM
% cell survival [3, 15]: 36.3% and 39.7%
% cell survival ([3]; cisplatin 30 μM alone (compound 0 μM)): 8.7% and 8.6%
% cell survival ([3]; cisplatin 100 μM alone (compound 0 μM)): −0.5% and 1.1%
IC50 [4, 16]: 2.3 µM
IC50 [4, 17]: 2.3 µM
IC50 [4, 18]: 2.5 µM
IC50 ([4]; MCF-7, 10 day exposure, mean of runs, read-out: IC50 Mean): 2.4 µM
% cell survival [5, 11]: 49.5% and 52.5%
% cell survival [5, 19]: 19.6% and 19.2%
% cell survival [5, 15]: 4.8% and 5.8%
Growth delay ([6]; 10 mg/kg, i.p., d 0): 5.1 days
Maximum % weight loss ([6]; 10 mg/kg, i.p., d 0): 8.0%
weight loss of tumour bearing mice ([6]; xenograft studies, FIG. 6): significant weight loss
IC50 [7, 20]: 2400 nM
IC50 [7, 21]: 1300 nM
IC50 [7, 22]: 700 nM
IC50 ([7]; HT-29, 10 day exposure, mean of runs, read-out: IC50 Mean): 1500 nM
% cell survival [8, 11]: 85.6% and 97.7%
% cell survival [8, 19]: 77.1% and 84.8%
% cell survival [8, 15]: 58.3% and 63.3%

3-(((2-(2-methoxyethoxy)(ethoxy)n)ethyl) hexane-1,6-diyldicarbamate)methyl)-6,7-dihydrodipyrido[1,2-a:2′,1′-c]pyrazine-5,8-diium bistrifluoromethanesulfonate [G]
rank order of efficacy (ROS production) ([9]; isolated HEK293 mitochondria, 100 μM, 120 mins): F>G>B>A
ROS production relative to vehicle treatment ([9]; isolated HEK293 mitochondria, 100 μM, 120 mins, room temperature): robustly increased ROS production

3-((2-(2-methoxy-ethoxy)(ethoxy)n)methyl)-6,7-dihydrodipyrido[1,2-a:2′,1′-c]pyrazine-5,8-diium bistrifluoromethanesulfonate [Compound C]
IC50 [2, 12]: > 30 µM
IC50 [2, 13]: > 100 µM
IC50 [2, 14]: > 100 µM
IC50 [4, 16]: > 30 µM
IC50 [4, 17]: 97 µM
IC50 [4, 18]: > 100 µM
Reduction potential 1 [10]: −0.470 V vs. SCE
Reduction potential 2 [10]: −0.803 V vs. SCE
Growth delay [6, 23]: 3.1 days
Maximum % weight loss [6, 23]: 0%
IC50 [7, 20]: > 30000 nM
IC50 [7, 21]: 82000 nM
IC50 [7, 22]: 78000 nM

3-(((2-(2-methoxyethoxy)(ethoxy)n)ethyl) hexane-1,6-diyldicarbamate)methyl)-6,7-dihydrodipyrido[1,2-a:2′,1′-c]pyrazine-5,8-diium bistrifluoromethanesulfonate [Compound D]
IC50 [2, 12]: > 30 µM
IC50 [2, 13]: > 100 µM
IC50 [2, 14]: > 100 µM
IC50 [4, 16]: > 30 µM
IC50 [4, 17]: 72 µM
IC50 [4, 18]: > 100 µM
Reduction potential 1 [10]: −0.423 V vs. SCE
Reduction potential 2 [10]: −0.828 V vs. SCE
Growth delay [6, 23]: 2.4 days
Maximum % weight loss [6, 23]: 0%
IC50 [7, 20]: > 30000 nM
IC50 [7, 21]: > 100000 nM
IC50 [7, 22]: 81000 nM

O=S(=O)([O-])C(F)(F)F.O=S(=O)([O-])C(F)(F)F.c1cc[n+]2c(c1)-c1cccc[n+]1CC2 [Compound A, 6,7-dihydrodipyrido[1,2-a:2′,1′-c]pyrazine-5,8-diium bistrifluoromethanesulfonate]
ROS production relative to vehicle treatment [9]: barely above vehicle levels
rank order of efficacy (ROS production) [9]: F>G>B>A
% cell survival ([1]; compound 1 μM + cisplatin 0.1 μM): 96.4%
% cell survival ([1]; compound 1 μM + cisplatin 0.3 μM): 69.4%
% cell survival ([1]; compound 1 μM + cisplatin 1 μM): 62%
% cell survival ([1]; compound 1 μM, cisplatin 0 μM): 109%
% cell survival ([1]; compound 3 μM + cisplatin 0.1 μM): 80.9%
% cell survival ([1]; compound 3 μM + cisplatin 0.3 μM): 64.8%
% cell survival ([1]; compound 3 μM + cisplatin 1 μM): 66.2%
% cell survival ([1]; compound 3 μM, cisplatin 0 μM): 95.1%
% cell survival ([1]; compound 10 μM + cisplatin 0.1 μM): 52.8%
% cell survival ([1]; compound 10 μM + cisplatin 0.3 μM): 39.6%
% cell survival [1, 24]: 32.6%
% cell survival ([1]; compound 10 μM, cisplatin 0 μM): 52.6%
IC50 ([2]; Homo sapiens, NCI-H460, 240 h, read-out: IC50 Mean): 5.4 µM
IC50 ([2]; Homo sapiens, NCI-H460, 240 h, read-out: IC50 Run 1): 5.2 µM
IC50 ([2]; Homo sapiens, NCI-H460, 240 h, read-out: IC50 Run 2): 5.5 µM
IC50 ([2]; Homo sapiens, NCI-H460, 240 h, read-out: IC50 Run 3): 5.4 µM
% cell survival [3, 25]: 51.4%
% cell survival ([3]; compound 1 μM + cisplatin 30 μM): 10%
% cell survival ([3]; compound 1 μM + cisplatin 100 μM): −1.6%
% cell survival ([3]; compound 1 μM, cisplatin 0 μM): 77.8%
% cell survival [3, 26]: 31.9%
% cell survival ([3]; compound 3 μM + cisplatin 30 μM): 10.2%
% cell survival ([3]; compound 3 μM + cisplatin 100 μM): 1.9%
% cell survival ([3]; compound 3 μM, cisplatin 0 μM): 48.7%
% cell survival [3, 27]: 16.6%
% cell survival ([3]; compound 10 μM + cisplatin 30 μM): 6%
% cell survival ([3]; compound 10 μM + cisplatin 100 μM): 1.8%
% cell survival ([3]; compound 10 μM, cisplatin 0 μM): 29.4%
IC50 ([4]; Homo sapiens, MCF7, 240 h, read-out: IC50 Mean): 5 µM
IC50 ([4]; Homo sapiens, MCF7, 240 h, read-out: IC50 Run 1): 2.7 µM
IC50 ([4]; Homo sapiens, MCF7, 240 h, read-out: IC50 Run 2): 5.4 µM
IC50 ([4]; Homo sapiens, MCF7, 240 h, read-out: IC50 Run 3): 6.8 µM
Reduction potential 1 [10]: −0.444 V vs. SCE
Reduction potential 2 [10]: −0.944 V vs. SCE
% cell survival ([5]; compound 1 μM + cisplatin 1 μM): 58%
% cell survival ([5]; compound 1 μM + cisplatin 3 μM): 24.5%
% cell survival [5, 25]: 5.2%
% cell survival ([5]; compound 1 μM, cisplatin 0 μM): 90.5%
% cell survival ([5]; compound 3 μM + cisplatin 1 μM): 54.4%
% cell survival ([5]; compound 3 μM + cisplatin 3 μM): 22.3%
% cell survival [5, 26]: 5.3%
% cell survival ([5]; compound 3 μM, cisplatin 0 μM): 86.3%
% cell survival [5, 24]: 40.6%
% cell survival [5, 28]: 19%
% cell survival [5, 27]: 5.2%
% cell survival ([5]; compound 10 μM, cisplatin 0 μM): 66%
IC50 ([7]; Homo sapiens, HT-29, 240 h, read-out: IC50 Mean): 1500 nM
IC50 ([7]; Homo sapiens, HT-29, 240 h, read-out: IC50 Run 1): 1800 nM
IC50 ([7]; Homo sapiens, HT-29, 240 h, read-out: IC50 Run 2): 900 nM
IC50 ([7]; Homo sapiens, HT-29, 240 h, read-out: IC50 Run 3): 1700 nM
% cell survival ([8]; compound 1 μM + cisplatin 1 μM): 83.1%
% cell survival ([8]; compound 1 μM + cisplatin 3 μM): 71.3%
% cell survival [8, 25]: 57.9%
% cell survival ([8]; compound 1 μM, cisplatin 0 μM): 87%
% cell survival ([8]; compound 3 μM + cisplatin 1 μM): 75.8%
% cell survival ([8]; compound 3 μM + cisplatin 3 μM): 68%
% cell survival [8, 26]: 55.4%
% cell survival ([8]; compound 3 μM, cisplatin 0 μM): 80%
% cell survival [8, 24]: 49%
% cell survival [8, 28]: 44.4%
% cell survival [8, 27]: 36.4%
% cell survival ([8]; compound 10 μM, cisplatin 0 μM): 56.5%
